Data from the supplement of paper PMC10307832.

Experiments:
Test in all cases: relative viability (nuclei count vs DMSO), 5 days (fraction); higher = more cells survive
[1] = compound: Cn1cc(-c2cnn3c(N)c(Br)c([C@@H]4CCCNC4)nc23)cn1 + Cc1nc(NC(=O)N2CCC[C@H]2C(N)=O)sc1-c1ccnc(C(C)(C)C(F)(F)F)c1 [Alpelisib] (partner 2 µM)
How it was run: (§1)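 For relative viability, nuclei counts in treated wells were divided by those in vehicle wells. Lung cancer cell lines had been pin-tool dosed in 1536-well plates the day after seeding and cultured for 5 days, then fixed and stained in one step (final 0.05% Triton X-100, 1% formaldehyde, 1 ug/ml Hoechst) and imaged at 4×. Doses were one drug alone or a fixed anchor-drug dose plus five library-drug doses (not always all listed) in √10 steps, and values are duplicate-plate medians.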

[2] = compound: Cn1cc(-c2cnn3c(N)c(Br)c([C@@H]4CCCNC4)nc23)cn1 + CC(=O)c1c(C)c2cnc(Nc3ccc(N4CCNCC4)cn3)nc2n(C2CCCC2)c1=O [Palbociclib] (partner 0.5 µM)
How it was run: as §1

[3] = compound: Cn1cc(-c2cnn3c(N)c(Br)c([C@@H]4CCCNC4)nc23)cn1 + O=C(c1cc(Cc2n[nH]c(=O)c3ccccc23)ccc1F)N1CCN(C(=O)C2CC2)CC1 [Olaparib] (partner 8 µM)
How it was run: as §1

[4] = compound: Cn1cc(-c2cnn3c(N)c(Br)c([C@@H]4CCCNC4)nc23)cn1 + Nc1nc2[nH]cc(CCc3ccc(C(=O)N[C@@H](CCC(=O)O)C(=O)O)cc3)c2c(=O)[nH]1 [Pemetrexed] (partner 0.2 µM)
How it was run: as §1

| Cell Line | relative viability ([1]; first compound 0.05 µM) | relative viability ([1]; first compound 0.1581 µM) | relative viability ([1]; first compound 0.5 µM) | relative viability ([1]; first compound 1.581 µM) | relative viability ([1]; first compound 5 µM) | relative viability ([2]; first compound 0.05 µM) | relative viability ([2]; first compound 0.1581 µM) | relative viability ([2]; first compound 0.5 µM) | relative viability ([2]; first compound 1.581 µM) | relative viability ([2]; first compound 5 µM) | relative viability ([3]; first compound 0.05 µM) | relative viability ([3]; first compound 0.1581 µM) | relative viability ([3]; first compound 0.5 µM) | relative viability ([3]; first compound 1.581 µM) | relative viability ([3]; first compound 5 µM) | relative viability ([4]; first compound 0.05 µM) | relative viability ([4]; first compound 0.1581 µM) | relative viability ([4]; first compound 0.5 µM) | relative viability ([4]; first compound 1.581 µM) | relative viability ([4]; first compound 5 µM) |
| --- | --- | --- | --- | --- | --- | --- | --- | --- | --- | --- | --- | --- | --- | --- | --- | --- | --- | --- | --- | --- |
| NCI-H2228 | 0.794 | 1.15 | 0.87 | 0.541 | 0.372 | 1.03 | 0.872 | 0.541 | 0.393 | 0.252 | 0.546 | 0.688 | 0.675 | 0.508 | 0.359 | 0.315 | 0.33 | 0.311 | 0.22 | 0.155 |
| NCI-H2347 | 0.974 | 1.19 | 0.959 | 0.957 | 0.812 | 0.41 | 0.442 | 0.421 | 0.39 | 0.43 | 0.626 | 0.695 | 0.53 | 0.629 | 0.611 | 0.408 | 0.394 | 0.418 | 0.502 | 0.338 |
| NCI-H2405 | 0.816 | 0.753 | 0.814 | 0.777 | 0.542 | 0.529 | 0.46 | 0.533 | 0.452 | 0.389 | 0.875 | 0.954 | 0.901 | 0.857 | 0.659 | 0.968 | 1.05 | 1.05 | 0.991 | 0.709 |
| NCI-H3122 | 0.79 | 0.856 | 0.806 | 0.717 | 0.869 | 0.169 | 0.164 | 0.227 | 0.182 | 0.163 | 0.647 | 0.674 | 0.598 | 0.635 | 0.563 | 0.196 | 0.169 | 0.158 | 0.147 | 0.164 |
